This is an account of results in patent publication US12415832B2, “B-catenin/B-cell Lymphoma 9 protein-protein interaction inhibiting peptidomimetics” (University of South Florida, priority 2019, dated 2025).

Bounds are passed on as bounds.

One assay deals with A549 cell. Format: cell-based. The settings on record: 72 h.
For a further assay, the system named is SW480 cell. Format: cell-based. The settings on record: for IC50: 72 h. The procedure: Colorectal cancer cell lines SW480 were seeded in 96-well plates at 5×10^3 cells/well, maintained overnight at 37° C., and incubated in the presence of inhibitors at various concentrations. Cell viability was monitored after 72 h using a freshly prepared mixture of one-part phenazine methosulfate (PMS, Sigma) solution (0.92 mg/mL) and 19 parts MTs agent (3-(4,5-dimethylthiazol-2-yl)-5-(3-carboxymethoxyphenyl)-2-(4-sulfophenyl)-2H-tetrazolium, inner salt, Promega) solution (2 mg/mL). Cells were incubated in 10 μL of this solution at 37° C. for 3 h, and A490 was measured. The effect of each compound is expressed as the concentration required to reduce A490 by 50% (IC50) relative to vehicle-treated cells. Experiments were performed in triplicate and repeated for three times.

The next assay has as its target T1, β-catenin (Homo sapiens, UniProt P35222).
T1 sequence (P35222 1-781): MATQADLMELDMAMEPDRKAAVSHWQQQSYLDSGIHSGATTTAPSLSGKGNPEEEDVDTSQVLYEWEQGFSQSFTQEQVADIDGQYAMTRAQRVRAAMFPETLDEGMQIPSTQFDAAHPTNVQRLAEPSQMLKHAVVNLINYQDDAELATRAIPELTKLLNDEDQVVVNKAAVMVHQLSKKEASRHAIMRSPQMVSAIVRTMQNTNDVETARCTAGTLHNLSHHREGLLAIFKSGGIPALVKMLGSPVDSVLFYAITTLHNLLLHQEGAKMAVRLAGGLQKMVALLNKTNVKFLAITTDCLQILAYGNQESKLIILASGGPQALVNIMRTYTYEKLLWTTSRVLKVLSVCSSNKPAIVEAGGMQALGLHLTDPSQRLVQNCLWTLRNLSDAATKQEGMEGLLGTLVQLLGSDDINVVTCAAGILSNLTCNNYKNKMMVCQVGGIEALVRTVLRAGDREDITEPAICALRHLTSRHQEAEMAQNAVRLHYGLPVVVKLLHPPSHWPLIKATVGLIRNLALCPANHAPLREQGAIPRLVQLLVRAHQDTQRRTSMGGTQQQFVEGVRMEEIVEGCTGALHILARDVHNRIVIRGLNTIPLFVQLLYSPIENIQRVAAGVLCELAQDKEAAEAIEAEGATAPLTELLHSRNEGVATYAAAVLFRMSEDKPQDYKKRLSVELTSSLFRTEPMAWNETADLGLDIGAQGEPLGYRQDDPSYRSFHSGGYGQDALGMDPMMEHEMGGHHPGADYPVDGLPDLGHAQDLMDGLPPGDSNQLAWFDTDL
The assay is described as follows: FP assay, binding of peptides with β-catenin (Kd). The settings on record: for Kd: fluorescence polarization, 50 nM FITC labeled peptide, 1×PBS.

The target of the next assay is T2, β-catenin/BCL9 PPI (Homo sapiens, UniProt P35222).
T2 construct: 40 nM His6-tagged FL-β-catenin
T2 sequence (P35222 1-781): T1 sequence (P35222 1-781)
Put plainly: AlphaScreen competitive inhibition assay of β-catenin/BCL9 PPI. Format: binding. The settings on record: for IC50 / Ki: AlphaScreen, mean ± SD; for IC50: 5 nM biotinylated BCL9, 40 nM His6-tagged FL-β-catenin; for Ki: Ki derived from IC50 by method of Nikolovska-Coleska et al. The procedure:
For the competitive inhibition assays of β-catenin/BCL9 PPI, the negative control (equivalent to 0% inhibition) refers to 5.0 nM biotinylated BCL9, 40 nM His6-tagged FL-β-catenin, and 10 μg/mL of donor and acceptor beads in a final volume of 25 μL of assay buffer, but no tested inhibitor present. The positive control (equivalent to 100% inhibition) refers to 5.0 nM biotinylated BCL9 and 10 μg/mL of donor and acceptor beads in a final volume of 25 μL of assay buffer. For the β-catenin/BCL9 assay, 5 nM biotinylated BCL9 and 40 nM His6-tagged FL-β-catenin were incubated in assay buffer at 4° C. for 30 min. Different concentrations of the tested inhibitor were added and incubated in 20 μL of assay buffer at 4° C. for another 1 h. All of the above assay plates were covered and gently mixed on an orbital shaker. The donor and acceptor beads were then added to the plates to a final concentration of 10 μg/mL in 25 μL of assay buffer. The mixture was incubated for 1 h at 4° C. before detection. The IC50 value was determined by nonlinear least-squares analysis of GraphPad Prism 5.0. The Ki values were derived from the IC50 values using a method reported by Nikolovska-Coleska et al. The assays were conducted under the conditions reported by Nikolovska-Coleska et al.'s equation for determining the Ki values. All of the experiments were performed in triplicate. The results were expressed as mean±standard deviation.

In general, IC50 refers to the midpoint of a concentration-inhibition curve. Higher therefore signals lower potency. As usually defined, the Kd is a measure of binding affinity in units of concentration. A higher Kd goes with a looser complex. Usually Ki stands for the equilibrium dissociation constant of an inhibitor or competing ligand from its target. The low end stands for higher affinity, the high end for lower affinity. As for `CCC(C)[C@@H](CN(CC(=O)N[C@@H](CC(C)C)CN(CC(=O)N[C@@H](CC(C)C)CN(CC(N)=O)S(=O)(=O)Cc1ccccc1)S(=O)(=O)CC(C)C)S(C)(=O)=O)NC(=O)CN(C[C@H](CCCNC(=N)N)NC(=O)CN(C[C@H](C)NC(=O)CN(C[C@@H](NC(=O)CN(C[C@H](CC(C)C)NC(=O)CN(C[C@H](CCCNC(=N)N)NC(=O)CN(C[C@H](CCCNC(=N)N)NC(=O)CN(C[C@H](CCC(=O)O)NC(C)=O)S(=O)(=O)CCN)S(C)(=O)=O)S(C)(=O)=O)S(=O)(=O)CCN)C(C)O)S(=O)(=O)CC(C)C)S(=O)(=O)CCN)S(=O)(=O)CC(C)C` (stereo partly shown) [Peptide 5], the IC50 stood at 230 ± 27.5 µM in the assay with A549 cell, 132 ± 18.9 µM with SW480 cell and 2.71 µM at β-catenin/BCL9 PPI. The molecule further returned a Kd on β-catenin of 1.97 µM. On β-catenin/BCL9 PPI, the affinity, expressed as Ki, was 2.43 µM.

With `CC(=O)N[C@@H](CCC(=O)O)CN(CC(=O)N[C@@H](CCCNC(=N)N)CN(CC(=O)N[C@@H](CCCNC(=N)N)CN(CC(=O)N[C@@H](CC(C)C)CN(CC(=O)N[C@H](CN(CC(=O)N[C@@H](CC(C)C)CN(CC(=O)N[C@@H](CCCNC(=N)N)CN(CC(=O)N[C@@H](C)CN(CC(=O)N[C@@H](CC(C)C)CN(CC(=O)N[C@@H](CC(C)C)CN(CC(N)=O)S(=O)(=O)Cc1ccccc1)S(=O)(=O)CC(C)C)S(C)(=O)=O)S(=O)(=O)CC(C)C)S(=O)(=O)CCN)S(=O)(=O)CC(C)C)C(C)O)S(=O)(=O)CCN)S(C)(=O)=O)S(C)(=O)=O)S(=O)(=O)CCN` (stereo partly shown) [Peptide 6], in the assay with A549 cell, half-maximal inhibition (IC50) was put at 150 ± 19.2 µM. In the assay on SW480 cell, the IC50 was determined as 65.4 ± 7.06 µM. For the same molecule, the “effect on SW480 cell proliferation, in words” value in the assay with SW480 cell (MTS) is “relatively weak activity”. Moreover, on β-catenin, the “improvement of Kd compared to the peptide 1” value is roughly 6 fold and the affinity, expressed as Kd, was 0.16 µM. Further, on β-catenin/BCL9 PPI, the “improvement of IC50 compared to the peptide 1” value was roughly 3 fold, the “improvement of Ki compared to the peptide 1” value is roughly 3 fold, the 50% inhibitory concentration (IC50) stood at 0.54 µM and the Ki is 0.46 µM.

Turning to `CCC(C)[C@@H](CN(CC(=O)N[C@@H](CC(C)C)CN(CC(=O)N[C@@H](C)CN(CC(N)=O)S(=O)(=O)Cc1ccccc1)S(=O)(=O)CC(C)C)S(C)(=O)=O)NC(=O)CN(C[C@H](CCCNC(=N)N)NC(=O)CN(C[C@H](CC(C)C)NC(=O)CN(C[C@@H](NC(=O)CN(C[C@H](CC(C)C)NC(=O)CN(C[C@H](CCCNC(=N)N)NC(=O)CN(C[C@H](CCCNC(=N)N)NC(=O)CN(C[C@H](CCC(=O)O)NC(C)=O)S(=O)(=O)CCN)S(C)(=O)=O)S(C)(=O)=O)S(=O)(=O)CCN)C(C)O)S(=O)(=O)CC(C)C)S(=O)(=O)CCN)S(=O)(=O)CC(C)C` (stereo partly shown) [Peptide 7], the IC50 in the assay with A549 cell was 120 ± 13.6 µM; with SW480 cell it was 46.6 ± 5.57 µM; on β-catenin/BCL9 PPI, 1 ± 0.1 µM. Further, the “decrease in binding affinity relative to 2” value on β-catenin (Ala substitution) is recorded as “about 1.5 fold”. At β-catenin, the Kd was 0.7 µM. For the same molecule, on β-catenin/BCL9 PPI, the affinity corresponds to a Ki of 0.89 ± 0.08 µM.

Regarding `CCC(C)[C@@H](CN(CC(=O)N[C@@H](CC(C)C)CN(CC(=O)N[C@@H](CC(C)C)CN(CC(N)=O)S(=O)(=O)Cc1ccccc1)S(=O)(=O)CC(C)C)S(C)(=O)=O)NC(=O)CN(C[C@H](CCCNC(=N)N)NC(=O)CN(C[C@H](CC(C)C)NC(=O)CN(C[C@@H](NC(=O)CN(C[C@H](CC(C)C)NC(=O)CN(C[C@H](CCCNC(=N)N)NC(=O)CN(C[C@H](CCCNC(=N)N)NC(=O)CN(C[C@H](CCC(=O)O)NC(C)=O)S(=O)(=O)CCN)S(C)(=O)=O)S(C)(=O)=O)S(=O)(=O)CCN)C(C)O)S(=O)(=O)CC(C)C)S(=O)(=O)CCN)S(C)(=O)=O` (stereo partly shown) [Peptide 8], at β-catenin, the “binding activity, in words” value is “inferior binding activity” and the affinity, expressed as Kd, was 3.89 µM. On β-catenin/BCL9 PPI, this molecule registered an IC50 of 8.01 ± 0.82 µM and a Ki of 7.2 ± 0.72 µM.

Consider `CC(=O)N[C@@H](CCC(=O)O)CN(CC(=O)N[C@@H](CCCNC(=N)N)CN(CC(=O)N[C@@H](CCCNC(=N)N)CN(CC(=O)N[C@@H](CC(C)C)CN(CC(=O)N[C@H](CN(CC(=O)N[C@@H](CC(C)C)CN(CC(=O)N[C@@H](CCCNC(=N)N)CN(CC(=O)N[C@@H](CCCNC(=N)N)CN(CC(=O)N[C@@H](CC(C)C)CN(CC(=O)N[C@@H](CC(C)C)CN(CC(N)=O)S(=O)(=O)Cc1ccccc1)S(=O)(=O)CC(C)C)S(C)(=O)=O)S(=O)(=O)CC(C)C)S(=O)(=O)CCN)S(=O)(=O)CC(C)C)C(C)O)S(=O)(=O)CCN)S(C)(=O)=O)S(C)(=O)=O)S(=O)(=O)CCN` (stereo partly shown) [Peptide 9], for which, at β-catenin, the “binding activity, in words” value is “inferior binding activity” and the Kd is 5.14 µM. At β-catenin/BCL9 PPI, this molecule registered an IC50 of 12.9 ± 2.15 µM and a Ki of 11.6 ± 1.92 µM.

For `CCC(C)[C@@H](CN(CC(=O)N[C@@H](CC(C)C)CN(CC(=O)N[C@@H](CC(C)C)CN(CC(N)=O)S(=O)(=O)Cc1ccccc1)S(=O)(=O)CC(C)C)S(=O)(=O)CC(C)C)NC(=O)CN(C[C@H](CCCNC(=N)N)NC(=O)CN(C[C@H](CC(C)C)NC(=O)CN(C[C@@H](NC(=O)CN(C[C@H](CC(C)C)NC(=O)CN(C[C@H](CCCNC(=N)N)NC(=O)CN(C[C@H](CCCNC(=N)N)NC(=O)CN(C[C@H](CCC(=O)O)NC(C)=O)S(=O)(=O)CCN)S(C)(=O)=O)S(C)(=O)=O)S(=O)(=O)CCN)C(C)O)S(=O)(=O)CC(C)C)S(=O)(=O)CCN)S(=O)(=O)CC(C)C` (stereo partly shown) [Peptide 10], at β-catenin, the “binding activity, in words” value is reported as “decreased binding activity” and the Kd turned out to be 2.51 µM. At β-catenin/BCL9 PPI, this molecule had an IC50 of 4.07 ± 0.59 µM and a Ki of 3.65 ± 0.51 µM.

As for `CCC(C)[C@@H](CN(CC(=O)N[C@@H](C)CN(CC(=O)N[C@@H](CC(C)C)CN(CC(N)=O)S(=O)(=O)Cc1ccccc1)S(=O)(=O)CC(C)C)S(C)(=O)=O)NC(=O)CN(C[C@H](CCCNC(=N)N)NC(=O)CN(C[C@H](CC(C)C)NC(=O)CN(C[C@@H](NC(=O)CN(C[C@H](CC(C)C)NC(=O)CN(C[C@H](CCCNC(=N)N)NC(=O)CN(C[C@H](CCCNC(=N)N)NC(=O)CN(C[C@H](CCC(=O)O)NC(C)=O)S(=O)(=O)CCN)S(C)(=O)=O)S(C)(=O)=O)S(=O)(=O)CCN)C(C)O)S(=O)(=O)CC(C)C)S(=O)(=O)CCN)S(=O)(=O)CC(C)C` (stereo partly shown) [Peptide 11], on β-catenin, the “binding activity, in words” value is on record as “inferior binding activity” and binding was characterised by a dissociation constant (Kd) of 8.26 µM. Also, at β-catenin/BCL9 PPI, the IC50 turned out to be 17.4 ± 3.35 µM and the Ki is 15.7 ± 3 µM.

On β-catenin, `CCC(C)[C@@H](CN(CC(=O)N[C@@H](CC(C)C)CN(CC(=O)N[C@@H](C)CN(CC(N)=O)S(=O)(=O)Cc1ccccc1)S(=O)(=O)CC(C)C)S(C)(=O)=O)NC(=O)CN(C[C@H](CCCNC(=N)N)NC(=O)CN(C[C@H](C)NC(=O)CN(C[C@@H](NC(=O)CN(C[C@H](CC(C)C)NC(=O)CN(C[C@H](CCCNC(=N)N)NC(=O)CN(C[C@H](C)NC(=O)CN(C[C@H](CCC(=O)O)NC(C)=O)S(C)(=O)=O)S(C)(=O)=O)S(C)(=O)=O)S(=O)(=O)CCN)C(C)O)S(=O)(=O)CC(C)C)S(=O)(=O)CCN)S(=O)(=O)CC(C)C` (stereo partly shown) [Peptide 12] returned a Kd greater than 10 µM. Besides, on β-catenin/BCL9 PPI, the “ability to inhibit β-catenin/BCL9 PPI, in words” value is “completely losing their ability to inhibit β-catenin/BCL9 PPI”; the IC50 was greater than 10 µM; the Ki is greater than 10 µM.
